# According to patent US8129163B2, “Gene suitable for alcohol dehydrogenase, vector and transformant” (Kaneka Corporation, priority 2006, dated 2012):
# Key:
# [1] = system: RMA; type: biochemical, Candida maltosa IFO 1977 strain
# [2] = system: enzyme derived from Candida parapsilosis IFO 1396 strain; conditions: cited from earlier work
smiles,measurement,setting,value
O=C(O)CN(CCN(CC(=O)O)CC(=O)O)CC(=O)O [Ethylenediaminetetraacetic acid],Relative activity (%) of RMA after treatment with inhibitor,[1],12.9%
same,inhibition of RMA (in words),[1],inhibited
same,inhibition of enzyme activity (in words),[2],not inhibited
